Assay results from patent US20230138327A1, “COMPOSITIONS AND METHODS CONTAINING REDUCED NICOTINAMIDE RIBOSIDE FOR PREVENTION AND TREATMENT OF PANCREATIC DISEASES AND CONDITIONS” (SOCIETE DES PRODUITS NESTLE S.A., priority 2020, published 2023).
Structures can show the parent of a compound that is named as a salt.

Columns and labels:
AML12 cells = assay: Pathway of NRH-induced NAD+ synthesis: intracellular metabolites and pathway inhibitors; type: cell-based; details: for Effect of adenosine kinase inhibitor on NRH-mediated NAD+ synthesis: AML12 cells, 5-IT 10 mM for 1 hour prior to NRH, NAD measured 1 hour later
Protocol: FIG. 4. NRH leads to NAD+ biosynthesis through an adenosine kinase dependent path. AML12 cells were treated with an adenosine kinase inhibitor (5-IT; […]) for 1 hour prior to NRH treatment at the doses indicated. Then, 1 hour later, acidic extracts were obtained to measure NAD levels. All values in the figure are expressed as mean+/−SEM of 3 independent experiments. * indicates statistical difference at p<0.05 vs. the respective vehicle treated group.
(§1) Levels of NRH and other NAD-related metabolites in biological samples were obtained by using a cold liquid-liquid extraction using a mixture of methanol:water:chloroform in 5:3:5 (v/v), from which the polar phase was recovered for hydrophilic interaction ultra-high performance liquid chromatography mass spectrometry (UHPLC-MS) analysis. The UHPLC consisted of a binary pump, a cooled autosampler, and a column oven (DIONEX Ultimate 3000 UHPLC+ Focused, Thermo Scientific), connected to a triple quadrupole spectrometer (TSQ Vantage, Thermo Scientific) equipped with a heated electrospray ionisation (H-ESI) source. Of each sample, 2 μL were injected into the analytical column (2.1 mm×150 mm, 5 μm pore size, 200 Å HILICON iHILIC®-Fusion(P)), guarded by a pre-column (2.1 mm×20 mm, 200 Å HILICON iHILIC®-Fusion(P) Guard Kit) operating at 35° C. The mobile phase (10 mM ammonium acetate at pH 9, A, and acetonitrile, B) was pumped at 0.25 mL/min flow rate over a linear gradient of decreasing organic solvent (0.5-16 min, 90-25% B), followed by re-equilibration for a total run time of 30 min. The MS operated in positive mode at 3500 V with multiple reaction monitoring (MRM). The software Xcalibur v4.1.31.9 (Thermo Scientific) was used for instrument control, data acquisition and processing. Retention time and mass detection was confirmed by authentic standards.
A path in which NRH would be converted to NMNH, then to NADH and this would be finally oxidized to NAD+.
In order to understand the exact path by which NRH synthesizes NAD+, we initially evaluated whether NRH, could be transported into the cell by equilibrative nucleoside transporters (ENTs).
(§2) The action of NRH was also NAMPT-independent, based on experiments using FK866, a NAMPT inhibitor. If NRH led to NAD+ synthesis via the formation of NMNH, this hypothetical path would require the phosphorylation of NRH into NMNH. Given the essential and rate-limiting role of NRK1 in NR phosphorylation, we wondered whether the ability of NRH to boost NAD+ levels was NRK1 dependent. To answer this question, we evaluated NRH action in primary hepatocytes from either control or NRK1 knockout (NRK1KO) mice. […] Further, they rule out the possibility that NRH-induced NAD+ […] is driven by NRH oxidation into NR.
Considering the molecular structure of NRH, we reasoned that an alternative nucleoside kinase could be responsible for the phosphorylation of NRH. […] The role of AK in NRH-mediated NAD+ synthesis was confirmed using a second, structurally different, AK inhibitor, ABT-702. Metabolomic analyses further confirmed that upon inhibition of AK, the generation of NMNH, NADH and NAD+ was fully blunted, even if NRH was effectively entering the cell.
As a follow-up step, NMNAT enzymes could catalyze the transition from NMNH to NADH. […] Yet, part of the NRH action remained after gallotannin treatment when NRH was used at maximal doses.

[1] = Stability of NRH or NR spiked in isolated mouse plasma; type: in vitro ADME; details: 2 h of incubation
Text: as §1

mice = assay: Tissue NAD+ levels in mice after intraperitoneal injection; type: in vivo; details: IP 500 mg/kg, after 1 h
Protocol: (§3) The above results prompted us to test whether NRH could act as an effective NAD+ precursor in vivo. For this, we first intraperitoneally (IP) injected mice with either NR or NRH (500 mg/kg). […] Importantly, NRH was detectable in circulation after IP injection.

[2] = system: primary hepatocytes from control or NRK1 knockout (NRK1KO) mice; assay: NAD+ levels in primary hepatocytes from control or NRK1 knockout mice; type: cell-based; details: 1 hour of treatment
Text: as §2

[3] = Plasma NRH, NR and NAM in mice after oral administration; type: in vivo; details: mouse, in vivo, po
Text: as §1
Oral administration of NRH led to very similar results to those observed after IP administration. […] NRH was detectable in plasma 1 h after oral administration. In contrast, NR levels were undetectable at 1 h after NR administration.

[4] = Circulating NRH, NR and NAM in mice after intraperitoneal injection; type: in vivo; details: mice, IP 500 mg/kg
Text: as §1, §3

## Nc1ncnc2c1c(I)cn2[C@@H]1O[C@H](CO)[C@@H](O)[C@H]1O [5-IT, 5-iodotubercidin]
AML12 cells
  Effect of adenosine kinase inhibitor on NRH-mediated NAD+ synthesis: fully ablated the action of NRH
AML12 cells; metabolomic analyses
  Formation of NR and NMN after NRH treatment under AK inhibitor: prevented the formation of NR and NMN

## Nc1ncnc2nc(-c3ccc(N4CCOCC4)nc3)cc(-c3cccc(Br)c3)c12 [ABT-702]
AML12 cells
  Effect of adenosine kinase inhibitor on NRH-mediated NAD+ synthesis: confirmed

## NC(=O)c1ccc[n+]([C@@H]2O[C@H](CO)[C@H](O)C2O)c1 (stereo partly drawn) [NR, 1-b-D-ribofuranosyl-3-pyridinecarboxamide salt, reference compound]
[1]
  Compound levels in isolated mouse plasma: decayed
  Generation of NAM in isolated mouse plasma: increase in NAM
AML12 cells; 5 minutes after treatment
  Intracellular detection of NRH and NMNH: not
mice
  NAD+ levels in kidney: increased NAD+ levels
  NAD+ levels in liver: increased NAD+ levels
  NAD+ levels in muscle: increased NAD+ levels
[2]
  NAD+ levels in NRK1KO derived primary hepatocytes: failed to increase NAD+ levels
[3]; C57BL/6NTac, 1 h
  Circulating NAM after NR treatment relative to NRH treatment: ~4 fold
[3]
  Administered compound in plasma: undetectable
  Circulating NAM: large increases
[4]
  NAM levels in circulation: highly increased

## O=C(OC[C@H]1O[C@@H](OC(=O)c2cc(O)c(O)c(OC(=O)c3cc(O)c(O)c(O)c3)c2)[C@H](OC(=O)c2cc(O)c(O)c(OC(=O)c3cc(O)c(O)c(O)c3)c2)[C@@H](OC(=O)c2cc(O)c(O)c(OC(=O)c3cc(O)c(O)c(O)c3)c2)[C@@H]1OC(=O)c1cc(O)c(O)c(OC(=O)c2cc(O)c(O)c(O)c2)c1)c1cc(O)c(O)c(OC(=O)c2cc(O)c(O)c(O)c2)c1 [gallotannin]
AML12 cells; NRH at maximal doses (0.5 mM), part of NRH action remained
  Effect of NMNAT inhibitor on NAD+ synthesis after NRH treatment: largely compromised NAD+ synthesis
AML12 cells; NRH at submaximal doses
  Effect of NMNAT inhibitor on NRH action: totally blocked
